Drawing on ChEMBL document CHEMBL1145331, “Synthesis of anthranylaldoxime derivatives as estrogen receptor ligands and computational prediction of binding modes” (J Med Chem, 2006), this text covers relative binding affinity (RBA), Selectivity ratio and Kd for 8 molecules.

As a reminder, the pKd is the negative decadic logarithm of the Kd, by convention in mol/L. A low value points to a high Kd.

Assay [1] concerns the target Estrogen receptor beta (Homo sapiens) (UniProt Q92731). Description: Displacement of [3H]estradiol from human ERbeta relative to estradiol. In general terms: Displacement assays read how much labelled ligand stays bound in the presence of the test substance.
Assay [2] concerns the target T1, Estrogen receptor (Homo sapiens) (UniProt Q92731+P03372). Nature of the assay: Ratio of RBA for human ERbeta to RBA for human ERalpha. In kind it is protein assay.
Assay [3] concerns the target T2, Estrogen receptor (Homo sapiens) (UniProt P03372).
T2 sequence (whole entry): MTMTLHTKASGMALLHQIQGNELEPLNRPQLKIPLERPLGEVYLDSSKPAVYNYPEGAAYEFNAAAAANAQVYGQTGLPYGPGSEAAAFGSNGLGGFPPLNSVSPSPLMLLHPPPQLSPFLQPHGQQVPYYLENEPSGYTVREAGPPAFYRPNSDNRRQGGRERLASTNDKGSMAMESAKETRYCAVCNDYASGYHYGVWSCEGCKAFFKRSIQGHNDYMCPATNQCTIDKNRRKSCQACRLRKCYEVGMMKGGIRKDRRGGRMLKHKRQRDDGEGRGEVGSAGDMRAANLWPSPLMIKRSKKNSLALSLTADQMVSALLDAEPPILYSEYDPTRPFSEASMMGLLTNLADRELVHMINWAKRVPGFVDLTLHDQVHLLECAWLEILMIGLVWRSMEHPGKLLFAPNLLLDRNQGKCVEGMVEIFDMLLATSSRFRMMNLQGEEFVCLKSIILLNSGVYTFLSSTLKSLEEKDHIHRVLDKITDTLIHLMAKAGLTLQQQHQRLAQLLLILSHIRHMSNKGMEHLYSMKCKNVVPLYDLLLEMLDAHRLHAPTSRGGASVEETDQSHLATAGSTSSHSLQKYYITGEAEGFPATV
Description: Displacement of [3H]estradiol from human ERalpha relative to estradiol.

For assay [4], the target named is T1, Estrogen receptor (Homo sapiens). Nature of the assay: Ratio of RBA for human ERalpha to RBA for human ERbeta. In kind it is protein assay.
For assay [5] the target is unchanged. Nature of the assay: Ratio of Kd for human ERalpha to Kd for human ERbeta. In kind it is protein assay.
Assay [6] has as its target T3, Estrogen receptor (Homo sapiens, UniProt P03372).
T3 sequence (P03372 whole entry): T2 sequence (whole entry)
Description: Displacement of [3H]estradiol from human ERalpha.

pKd: −log10 of the molar value.

T1 sequence (Q92731 whole entry, looked up, one chain of several): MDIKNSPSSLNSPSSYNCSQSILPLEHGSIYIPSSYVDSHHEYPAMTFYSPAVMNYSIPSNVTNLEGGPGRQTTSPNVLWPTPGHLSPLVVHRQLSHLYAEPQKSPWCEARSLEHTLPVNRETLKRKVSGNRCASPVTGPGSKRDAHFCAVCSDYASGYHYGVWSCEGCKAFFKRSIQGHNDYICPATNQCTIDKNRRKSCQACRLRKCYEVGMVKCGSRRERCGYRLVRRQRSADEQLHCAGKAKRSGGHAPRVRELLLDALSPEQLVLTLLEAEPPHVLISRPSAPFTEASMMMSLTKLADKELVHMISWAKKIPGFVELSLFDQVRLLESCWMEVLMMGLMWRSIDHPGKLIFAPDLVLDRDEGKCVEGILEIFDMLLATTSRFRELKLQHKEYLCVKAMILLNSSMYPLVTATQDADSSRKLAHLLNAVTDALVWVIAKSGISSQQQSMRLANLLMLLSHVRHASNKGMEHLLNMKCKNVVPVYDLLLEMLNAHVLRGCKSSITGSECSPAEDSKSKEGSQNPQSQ
Sequence of Estrogen receptor beta (Homo sapiens) (Q92731 whole entry): as the sequence (Q92731 whole entry, looked up, one chain of several) above

As for `CNc1c(/C=N/O)ccc(-c2ccc(C)cc2)c1-c1ccc(C)cc1`, the relative binding affinity (RBA) in assay [1] was determined as 1.86; in assay [3], 0.95. In assay [2], the Selectivity ratio was found to be 2.
`CNc1c(/C=N/O)ccc(-c2ccccc2)c1-c1ccc(O)cc1`: the values for the relative binding affinity (RBA) in assay [1] and in assay [3] were 0.72 and 1.17, respectively.
The like results for `CNc1c(/C=N/O)ccc(-c2ccc(OC)cc2)c1-c1ccc(OC)cc1` were, in that order, 0.47 and 2.33.
The like results for `CNc1c(/C=N/O)ccc(-c2cccc(OC)c2)c1-c1cccc(OC)c1` were, in that order, 0.14 and 0.65.
`CNc1c(/C=N/O)ccc(-c2cccc(C)c2)c1-c1cccc(C)c1`: the values for the relative binding affinity (RBA) in assay [1] and in assay [3] were 2.13 and 3.91, respectively. In addition, in assay [4], the Selectivity ratio stood at 2.
Regarding `CNc1c(/C=N/O)ccc(-c2ccc(O)cc2)c1-c1ccc(O)cc1`, the relative binding affinity (RBA) came to 0.14 in assay [1] and 1.96 in assay [3]. Also, in assay [5], the Selectivity ratio turned out to be 36.
As to `CNc1c(/C=N/O)ccc(-c2ccc(O)cc2)c1-c1ccccc1`, the relative binding affinity (RBA) in assay [1] worked out at 1.11; in assay [3] it was 5.38. This molecule gave a pKd in assay [6] of 8.43.
As to `CNc1c(/C=N/O)ccc(-c2cccc(O)c2)c1-c1cccc(O)c1`, the relative binding affinity (RBA) in assay [1] turned out to be 0.05; in assay [3], 0.14.
